According to patent publication US20080305958A1, “Process for Liquid or gas Chromatography/Mass Spectrometry Based Biomolecular Screening for Drug Discovery” (priority 2004, published 2008):

Target: T1, M CPT-I (Homo sapiens, UniProt Q92523)
T1 sequence (Q92523 1-772): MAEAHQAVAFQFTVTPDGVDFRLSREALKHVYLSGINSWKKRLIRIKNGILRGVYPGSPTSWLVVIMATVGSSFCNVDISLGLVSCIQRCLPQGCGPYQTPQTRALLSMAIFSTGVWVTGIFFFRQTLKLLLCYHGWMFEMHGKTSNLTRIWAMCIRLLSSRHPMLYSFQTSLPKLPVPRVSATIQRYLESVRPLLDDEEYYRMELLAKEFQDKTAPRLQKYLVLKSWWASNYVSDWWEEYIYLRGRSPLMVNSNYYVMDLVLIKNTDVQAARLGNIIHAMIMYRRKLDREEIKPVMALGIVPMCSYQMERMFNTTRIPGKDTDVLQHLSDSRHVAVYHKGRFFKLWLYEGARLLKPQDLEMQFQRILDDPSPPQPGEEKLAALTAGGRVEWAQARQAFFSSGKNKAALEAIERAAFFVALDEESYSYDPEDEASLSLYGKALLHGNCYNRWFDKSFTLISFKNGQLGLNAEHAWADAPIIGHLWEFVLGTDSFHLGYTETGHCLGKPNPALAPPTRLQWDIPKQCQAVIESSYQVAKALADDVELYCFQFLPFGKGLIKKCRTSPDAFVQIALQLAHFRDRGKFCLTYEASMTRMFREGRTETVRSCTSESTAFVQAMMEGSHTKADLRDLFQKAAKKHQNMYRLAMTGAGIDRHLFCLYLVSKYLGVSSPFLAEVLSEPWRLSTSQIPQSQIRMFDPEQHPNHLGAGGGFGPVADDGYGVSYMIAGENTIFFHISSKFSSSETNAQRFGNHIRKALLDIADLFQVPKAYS
Assay: LC/MS HTS assay, malonyl-CoA inhibition of human MCPT-I (palmitoyl-CoA and carnitine converted to palmitoyl carnitine)
Assay type: biochemical
Details: FIG. 9B
Source text: The biological activity used for the assay is the conversion by CPT-1 of palmitoyl-CoA (fatty acid-CoA) and carnitine to palmitoyl carnitine complex and free CoA.
The biological activity used for the assay is the conversion by CPT-1 of palmitoyl-CoA and carnitine to palmitoyl carnitine complex and free CoA.

IC50: 41 nM
Compound: CC(C)(COP(=O)(O)OP(=O)(O)OC[C@H]1O[C@@H](n2cnc3c(N)ncnc32)[C@H](O)[C@@H]1OP(=O)(O)O)[C@@H](O)C(=O)NCCC(=O)NCCSC(=O)CC(=O)O [Malonyl-CoA]
